These results are taken from publication PMC8589851 (Scientific Reports, 2021).

Values joined by “and” are separate entries in the source; they are usually repeats but may differ in a detail not shown here. Identical values can stand only once. Like-named read-outs stand apart in the source and are kept apart here.

Data set [1] concerns SARS-CoV-2 NanoLuc reporter virus. Nature of the data set: microbe, parasite or virus in culture. Type of data set: cell-based.
The conditions of data set [2]: CF patients, cited from earlier work.
The conditions of data set [3]: 0.25 mg daily for one week, cystic fibrosis patients; cited from earlier work.
A further data set concerns native SARS-CoV-2. The note with it: Vero cells; cited from earlier work.
Data set [4] relates to SARS-CoV-2 Spike pseudotyped VSV(S). Kind of data set: microbe, parasite or virus in culture. Format: cell-based. As to conditions: Severe acute respiratory syndrome coronavirus 2, A549, read-out: Hill plot-based EC-50, inhibition of virus penetration.
For data set [5] the following is noted: cited from earlier work.
For data set [6] the following is noted: 0.50–0.60 mg injected, 12 normal subjects; cited from earlier work.
Where [7] appears, read: 0.25 mg ouabain daily for 9 days.
The mark [8] stands for this setting: 0.25 mg ouabain, normal human volunteers.

`C[C@]12CC[C@H](O)C[C@H]1CC[C@@H]1[C@@H]2C[C@@H](O)[C@]2(C)[C@@H](C3=CC(=O)OC3)CC[C@]12O` [Digoxigenin, digoxigenin] displayed an inhibition of infectivity in data set [1] of 100%.
On to `C[C@H]1O[C@@H](O[C@H]2[C@@H](O)C[C@H](O[C@H]3[C@@H](O)C[C@H](O[C@H]4CC[C@@]5(C)[C@H](CC[C@@H]6[C@@H]5CC[C@]5(C)[C@@H](C7=CC(=O)OC7)CC[C@]65O)C4)O[C@@H]3C)O[C@@H]2C)C[C@H](O)[C@@H]1O` [Digitoxin, digitoxin], for which the peak serum concentration in data set [2] (0.1 mg/day by mouth, by day 28) is 10 ng/ml and 13 nM. In addition, in data set [2] (0.05 or 0.1 mg/day for 28 days), the adverse events entry was “no adverse events were associated with the study drug”. Besides, in data set [1], the inhibition of infectivity is 100%.
For `C[C@]12CC[C@H](O)C[C@H]1CC[C@@H]1[C@@H]2CC[C@]2(C)[C@@H](C3=CC(=O)OC3)CC[C@]12O` [Digitoxigenin, digitoxigenin], the inhibition of infectivity in data set [1] was determined as 100%.
On to `C[C@H]1O[C@@H](O[C@H]2[C@@H](O)C[C@H](O[C@H]3[C@@H](O)C[C@H](O[C@H]4CC[C@@]5(C)[C@H](CC[C@@H]6[C@@H]5C[C@@H](O)[C@]5(C)[C@@H](C7=CC(=O)OC7)CC[C@]65O)C4)O[C@@H]3C)O[C@@H]2C)C[C@H](O)[C@@H]1O` [Digoxin, digoxin], for which the adverse events entry in data set [3] is “no adverse events associated with the study drug”. In addition, in data set [1], the inhibition of infectivity turned out to be 100%. In addition, the EC50 in the data set on native SARS-CoV-2 was 43 nM.
`C[C@@H]1O[C@@H](O[C@H]2C[C@@H](O)[C@]3(CO)[C@H]4[C@H](O)C[C@]5(C)[C@@H](C6=CC(=O)OC6)CC[C@]5(O)[C@@H]4CC[C@]3(O)C2)[C@H](O)[C@H](O)[C@H]1O` [Ouabain, ouabain]: the EC50 was 16 ± 1 nM in data set [4]; 36 nM in data set [1] (Severe acute respiratory syndrome coronavirus 2, read-out: EC50, inhibition of infectivity); 24 nM in the data set with native SARS-CoV-2. Besides, the adverse events result in data set [5] (setting [7]) is listed as “No adverse events were reported”. In addition, the time to plateau in data set [5] (setting [7]) is 4 to 5 days. In data set [5] (setting [8]), the half-life (as a rule, the time in which the quantity being followed falls by half) was 19 to 24 h. Besides, the peak plasma concentration in data set [5] (setting [8]) is 12 ng/ml and 20 nM. The adverse effects entry in data set [6] is “No adverse effects were reported”. Besides, the inhibition of infectivity in data set [1] is 100%.
